Measured values reported in ChEMBL document CHEMBL3039007, “Structure-based identification of OATP1B1/3 inhibitors” (Mol Pharmacol, 2013).

What was measured:
[1] = target: T1, Solute carrier organic anion transporter family member 1B1 (Homo sapiens, UniProt Q9Y6L6); conditions: chinese hamster, cho, 10 µM
T1 sequence (Q9Y6L6 whole entry): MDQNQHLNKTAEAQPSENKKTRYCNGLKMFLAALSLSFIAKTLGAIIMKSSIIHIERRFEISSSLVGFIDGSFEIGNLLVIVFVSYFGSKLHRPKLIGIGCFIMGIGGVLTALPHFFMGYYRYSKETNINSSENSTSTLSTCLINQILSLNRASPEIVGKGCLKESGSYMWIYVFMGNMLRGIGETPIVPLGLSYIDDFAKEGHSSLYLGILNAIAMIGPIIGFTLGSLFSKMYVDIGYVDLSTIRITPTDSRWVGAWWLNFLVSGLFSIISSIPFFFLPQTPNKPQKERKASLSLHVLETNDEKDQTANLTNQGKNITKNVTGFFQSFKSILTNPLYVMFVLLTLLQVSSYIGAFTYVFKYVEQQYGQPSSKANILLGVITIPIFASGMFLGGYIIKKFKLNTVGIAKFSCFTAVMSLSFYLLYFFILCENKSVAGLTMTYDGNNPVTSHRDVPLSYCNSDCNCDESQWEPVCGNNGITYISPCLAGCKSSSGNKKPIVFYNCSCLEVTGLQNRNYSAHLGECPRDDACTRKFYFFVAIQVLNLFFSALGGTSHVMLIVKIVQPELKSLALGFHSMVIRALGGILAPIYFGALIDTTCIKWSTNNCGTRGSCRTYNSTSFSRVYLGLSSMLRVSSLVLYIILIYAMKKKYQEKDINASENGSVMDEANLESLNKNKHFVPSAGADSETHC

[2] = target: T2, Solute carrier organic anion transporter family member 1B3 (Homo sapiens, UniProt Q9NPD5); conditions: chinese hamster, cho, 10 µM
T2 sequence (Q9NPD5 whole entry): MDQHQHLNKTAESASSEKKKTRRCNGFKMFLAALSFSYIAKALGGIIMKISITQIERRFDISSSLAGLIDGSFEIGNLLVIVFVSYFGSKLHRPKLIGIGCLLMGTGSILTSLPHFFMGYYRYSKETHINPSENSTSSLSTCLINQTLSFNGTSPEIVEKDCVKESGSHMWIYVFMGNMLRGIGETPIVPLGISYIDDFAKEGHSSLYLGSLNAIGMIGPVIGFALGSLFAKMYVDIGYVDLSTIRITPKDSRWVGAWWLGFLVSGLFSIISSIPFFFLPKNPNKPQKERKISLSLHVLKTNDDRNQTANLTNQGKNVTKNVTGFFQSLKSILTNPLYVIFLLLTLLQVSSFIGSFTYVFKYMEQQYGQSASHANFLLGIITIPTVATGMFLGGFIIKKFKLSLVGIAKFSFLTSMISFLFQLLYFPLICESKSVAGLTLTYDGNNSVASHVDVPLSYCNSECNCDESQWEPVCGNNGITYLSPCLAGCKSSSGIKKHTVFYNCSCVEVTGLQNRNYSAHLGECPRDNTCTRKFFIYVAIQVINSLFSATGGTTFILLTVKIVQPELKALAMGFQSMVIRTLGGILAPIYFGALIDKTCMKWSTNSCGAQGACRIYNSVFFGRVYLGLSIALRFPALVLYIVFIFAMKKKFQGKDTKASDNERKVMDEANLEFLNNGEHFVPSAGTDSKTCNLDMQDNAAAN

Row | SMILES | residual activity [1] [%] | residual activity [2] [%]
1 | CCCn1cnc2c1c(=O)n(CCCCC(C)=O)c(=O)n2C [PROPENTOFYLLINE] | 126.3 | 110.4
2 | C[N+]1(C)[C@@H]2CC[C@H]1C[C@@H](OC(=O)C(O)c1ccccc1)C2.[Br-] (some centres not stated) [HOMATROPINE METHYLBROMIDE] | 77.55 | 73.94
3 | CSCC[C@H](N)C(=O)N[C@@H](CC(C)C)C(=O)N[C@@H](Cc1ccccc1)C(=O)OC(C)=O | 102.4 | 94.57
4 | O=C1C(O)=C([C@H]2CC[C@H](c3ccc(Cl)cc3)CC2)C(=O)c2ccccc21 [ATOVAQUONE] | 89.04 | 81.94
5 | O=C1c2ccccc2-c2cccc3cccc1c23 [BENZANTHRONE] | 127.3 | 69.74
6 | CCc1cccc(C)c1N(C(=O)CCl)C(C)COC (configuration not stated) [METOLACHOR] | 93.33 | 101.7
7 | Cc1cc(NC(=O)C2=C(O)c3ccccc3S(=O)(=O)N2C)no1 [ISOXICAM] | 111.2 | 86.6
8 | NC1(C(=O)O)CCC1 [1-AMINOCYCLOBUTANE CARBOXYLIC ACID] | 131.1 | 95.93
9 | CCOC(=O)[C@H](CCc1ccccc1)N[C@@H](C)C(=O)N1Cc2ccccc2C[C@H]1C(=O)O.Cl [QUINAPRIL HYDROCHLORIDE] | 109.5 | 98.34
10 | COc1cc2ccc(=O)oc2c2ccoc12 [SPHONDIN] | 127 | 102.5
11 | N#C[C@H](O[C@@H]1O[C@H](CO[C@@H]2O[C@H](CO)[C@@H](O)[C@H](O)[C@H]2O)[C@@H](O)[C@H](O)[C@H]1O)c1ccccc1 [AMYGDALIN] | 118.1 | 103.6
12 | COC(=O)C1=C(C)NC(C)=C(C(=O)OCCN(C)Cc2ccccc2)C1c1cccc([N+](=O)[O-])c1.Cl (configuration not stated) [NICARDIPINE HYDROCHLORIDE] | 56.95 | 67.41
13 | Cl.NCC(=O)c1ccccc1 [PHENACYLAMINE HYDROCHLORIDE] | 77.38 | 95.9
14 | CN(C)CC[C@@H](c1ccc(Cl)cc1)c1ccccn1.O=C(O)/C=C\C(=O)O [DEXCHLORPHENIRAMINE MALEATE] | 117.7 | 103.6
15 | CC(C)[C@@H]1CC[C@@H](C)CC1=O [MENTHONE] | 96.98 | 100.2
16 | C[C@]12CC[C@H](Cl)C[C@@H]1CC[C@@H]1[C@@H]2CC[C@]2(C)C(=O)CC[C@@H]12 | 67.79 | 70.61
17 | COC(=O)Nc1nc2ccc(C(=O)c3cccs3)cc2[nH]1 [NOCODAZOLE] | 105.9 | 95.15
18 | CC(C)=CC1C(C(=O)OCc2cccc(Oc3ccccc3)c2)C1(C)C (configuration not stated) [PHENOTHRIN] | 157.5 | 107.3
19 | Cc1c(O)c(C(=O)CC(C)C)c2oc3c(C(=O)CC(C)C)c(O)c(C)c(O)c3c2c1O [RHODOMYRTOXIN] | 31.12 | 66.23
20 | CC(=O)OCC(=O)[C@@]1(O)CC[C@H]2[C@@H]3C[C@H](C)C4=CC(=O)C=C[C@]4(C)[C@H]3[C@@H](O)C[C@@]21C [METHYLPREDNISOLONE ACETATE] | 52.04 | 84.05
21 | CC[C@@]1(O)C[C@H](O[C@H]2C[C@H](N(C)C)[C@H](O[C@H]3C[C@H](O)[C@H](O[C@H]4CCC(=O)[C@H](C)O4)[C@H](C)O3)[C@H](C)O2)c2c(cc3c(c2O)C(=O)c2c(O)cccc2C3=O)[C@H]1C(=O)OC [ACLARUBICIN] | 95.52 | 107.1
22 | Br.CC(N)Cc1ccc(O)cc1 (configuration not stated) [HYDROXYAMPHETAMINE HYDROBROMIDE] | 85.8 | 84.1
23 | C=CC1=C(C)c2cc3[nH]c(cc4nc(cc5[nH]c(cc1n2)c(C)c5CCC(=O)O)C(CCC(=O)O)=C4C)c(C)c3C=C [PROTOPORPHYRIN] | 49.56 | 94.63

Row | SMILES | residual activity [1] [%] | residual activity [2] [%]
24 | CCc1nc(N)nc(N)c1-c1ccc(Cl)cc1 [PYRIMETHAMINE] | 72.59 | 107.4
25 | C=N[C@@H](C(=O)N[C@@H]1C(=O)N2[C@@H]1SC(C)(C)[C@@H]2C(=O)[O-])c1ccccc1.[Na+] | 110.5 | 54.33
26 | N=C(N)NCCCCNC(=N)N.O=S(=O)(O)O [ARCAINE SULFATE] | 78.37 | 96.72
27 | CCCCOc1cc(C(=O)NCCN(CC)CC)c2ccccc2n1.Cl [DIBUCAINE HYDROCHLORIDE] | 103.4 | 94.35
28 | COC1(C)CCC2OC2(C)CCC2C1CC2(C)C (configuration not stated) [2-METHOXY-5 (6)EPOXY-TETRAHYDROCARYOPHYLLENE] | 92.29 | 93.07
29 | O=C(O)c1cccc(O)c1O [2,3-DIHYDROXYBENZOIC ACID] | 94.43 | 84.74
30 | CNC(C)(C)Cc1ccccc1.O=S(=O)(O)O | 107.5 | 109.4
31 | CC(C)=CCc1c2c(c3occ(-c4ccc(O)c(O)c4)c(=O)c3c1O)C=CC(C)(C)O2 [POMIFERIN] | 114.2 | 87.87
32 | CC1(C)[C@@H](OC(=O)CCC(=O)[O-])CC[C@]2(C)[C@H]3C(=O)C=C4[C@@H]5C[C@@](C)(C(=O)[O-])CC[C@]5(C)CC[C@@]4(C)[C@]3(C)CC[C@@H]12.[Na+].[Na+] [CARBENOXOLONE SODIUM] | 15.44 | 14.47
33 | NC(=O)CN1CCCC1=O | 88.77 | 103.1
34 | C=CC(C1=CC(=O)C=CC1=O)c1ccccc1 (configuration not stated) [DALBERGIONE] | 72.19 | 269.8
35 | C/C=C1\[C@H]2C=C(C)C[C@]1(N)c1ccc(=O)[nH]c1C2 [HUPERZINE A] | 93.86 | 101.3
36 | C[C@H]1C[C@H]2[C@@H]3CCC4=CC(=O)C=C[C@]4(C)[C@@]3(F)[C@@H](O)C[C@]2(C)[C@@]1(O)C(=O)CO [BETAMETHASONE] | 76.17 | 102.7
37 | COc1cc(O)c2c(c1)C(=O)c1cc(C)cc(O)c1C2=O [PHYSCION] | 111.9 | 112.8
38 | Oc1ccc([C@H]2Oc3cc(O)cc(O)c3C[C@H]2O)cc1 [EPIAFZELECHIN (2R,3R)(-)] | 48.25 | 26.68
39 | CC(C)[N+](C)(CCC(C(N)=O)(c1ccccc1)c1ccccc1)C(C)C.[I-] [ISOPROPAMIDE IODIDE] | 83.43 | 91.67
40 | Oc1c(Cl)cc(Cl)c(Cl)c1Cc1c(O)c(Cl)cc(Cl)c1Cl [HEXACHLOROPHENE] | 7.55 | 3.11
41 | C[C@]12CC[C@@H](O)C[C@H]1CCc1ccccc12 [3alpha-HYDROXY-4,4-BISNOR-8,11,13-PODOCARPATRIENE] | 77.88 | 100.9
42 | CC[C@H](c1ccc(O)cc1)[C@@H](CC)c1ccc(O)cc1 [HEXESTROL] | 46.62 | 43.21
43 | O=[N+]([O-])c1ccc(O)c([N+](=O)[O-])c1 [2,4-DINITROPHENOL] | 75.05 | 78.36
44 | C[n+]1c2cc(N)ccc2cc2ccc(N)cc21.[Cl-] [EUFLAVINE] | 105.1 | 93.94
45 | Cc1cc(O)c2c(c1O)C(=O)c1c(O)cc(C)c(O)c1C2=O [1,4,5,8-TETRAHYDROXY-2,6-DIMETHYLANTHROQUINONE] | 102.7 | 105.2
46 | COc1cc(OC)c(-c2c(OC)cc(OC)cc2OC)c(OC)c1 [DIFUCOL HEXAMETHYL ETHER] | 117.5 | 105.6
